Data as given in the supplement of paper PMC10307832.

Tests used:
Experiment in all cases: relative viability (nuclei count vs DMSO), 5 days (fraction); higher = more cells survive
[1] = compound: C1CCC(CC1)N(CCNCCC2=C3C(=C(C=C2)O)NC(=O)CO3)C(=O)CCNCCC4=CC(=C(C=C4)Cl)Cl [AZ505] + Cc1cc(Nc2cc(N3CCN(C)CC3)nc(Sc3ccc(NC(=O)C4CC4)cc3)n2)n[nH]1 [Tozasertib] (partner 0.1 µM)
Procedure, shortened: (§1)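 Lung cancer cell lines in 1536-well plates got either a single drug or a fixed anchor-drug dose together with five library-drug doses (not always all listed) in √10 steps, by pin tool, on the day after seeding. Nuclei were counted after 5 days, and relative viability is the treated-to-vehicle ratio of nuclei counts. Values are medians of duplicate plates.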

[2] = compound: C1CCC(CC1)N(CCNCCC2=C3C(=C(C=C2)O)NC(=O)CO3)C(=O)CCNCCC4=CC(=C(C=C4)Cl)Cl [AZ505] + CS(=O)(=O)N1CCN(Cc2cc3nc(-c4cccc5[nH]ncc45)nc(N4CCOCC4)c3s2)CC1 [Pictilisib] (partner 1 µM)
Procedure, shortened: as §1

[3] = compound: C1CCC(CC1)N(CCNCCC2=C3C(=C(C=C2)O)NC(=O)CO3)C(=O)CCNCCC4=CC(=C(C=C4)Cl)Cl [AZ505] + C[C@]1(O)C[C@@H](c2nc(-c3ccc4ccc(-c5ccccc5)nc4c3)c3c(N)nccn32)C1 [Linsitinib] (partner 1 µM)
Procedure, shortened: as §1

[4] = compound: C1CCC(CC1)N(CCNCCC2=C3C(=C(C=C2)O)NC(=O)CO3)C(=O)CCNCCC4=CC(=C(C=C4)Cl)Cl [AZ505] + COc1cccc2cc(-c3nc([C@H]4CC[C@H](C(=O)O)CC4)n4ncnc(N)c34)[nH]c12 [OSI-027] (partner 0.5 µM)
Procedure, shortened: as §1

| Cell Line | relative viability ([1]; first compound 0.08 µM) | relative viability ([1]; first compound 0.253 µM) | relative viability ([1]; first compound 0.8 µM) | relative viability ([1]; first compound 2.53 µM) | relative viability ([1]; first compound 8 µM) | relative viability ([2]; first compound 0.08 µM) | relative viability ([2]; first compound 0.253 µM) | relative viability ([2]; first compound 0.8 µM) | relative viability ([2]; first compound 2.53 µM) | relative viability ([2]; first compound 8 µM) | relative viability ([3]; first compound 0.08 µM) | relative viability ([3]; first compound 0.253 µM) | relative viability ([3]; first compound 0.8 µM) | relative viability ([3]; first compound 2.53 µM) | relative viability ([3]; first compound 8 µM) | relative viability ([4]; first compound 0.08 µM) | relative viability ([4]; first compound 0.253 µM) | relative viability ([4]; first compound 0.8 µM) | relative viability ([4]; first compound 2.53 µM) | relative viability ([4]; first compound 8 µM) |
| --- | --- | --- | --- | --- | --- | --- | --- | --- | --- | --- | --- | --- | --- | --- | --- | --- | --- | --- | --- | --- |
| NCI-H1395 | 0.781 | 0.823 | 0.625 | 0.695 | 0.767 | 0.704 | 0.563 | 0.512 | 0.635 | 0.698 | 0.972 | 1.01 | 0.949 | 0.971 | 1 | 0.685 | 0.543 | 0.563 | 0.622 | 0.604 |
| NCI-H1437 | 0.396 | 0.424 | 0.382 | 0.391 | 0.403 | 0.46 | 0.424 | 0.599 | 0.415 | 0.404 | 1.02 | 1.15 | 1.08 | 1.08 | 1.03 | 0.864 | 0.963 | 0.911 | 0.823 | 0.872 |
| NCI-H1651 | 0.65 | 0.784 | 0.633 | 0.725 | 0.606 | 0.656 | 0.56 | 0.603 | 0.633 | 0.588 | 0.911 | 0.977 | 0.895 | 0.962 | 1.16 | 0.678 | 0.75 | 0.725 | 0.763 | 0.717 |
| NCI-H1666 | 0.629 | 0.613 | 0.534 | 0.525 | 0.584 | 0.442 | 0.404 | 0.421 | 0.408 | 0.456 | 0.835 | 0.718 | 0.849 | 0.726 | 0.941 | 0.779 | 0.817 | 0.725 | 0.93 | 0.912 |
| NCI-H1734 | 0.259 | 0.276 | 0.243 | 0.219 | 0.215 | 0.384 | 0.407 | 0.446 | 0.44 | 0.431 | 0.654 | 0.908 | 0.801 | 0.949 | 0.883 | 0.515 | 0.539 | 0.573 | 0.559 | 0.576 |
| NCI-H1755 | 0.526 | 0.595 | 0.602 | 0.646 | 0.564 | 0.347 | 0.331 | 0.333 | 0.42 | 0.431 | 0.968 | 0.984 | 0.924 | 0.985 | 0.974 | 0.763 | 0.73 | 0.643 | 0.742 | 0.691 |
| NCI-H1793 | 0.392 | 0.346 | 0.386 | – | 0.384 | 0.284 | 0.417 | 0.426 | 0.31 | 0.386 | 0.766 | 0.769 | 0.932 | 1.03 | 1.06 | 0.245 | 0.228 | 0.344 | – | 0.37 |
| NCI-H1915 | 0.422 | 0.447 | 0.432 | 0.416 | 0.399 | 0.907 | 0.891 | 0.835 | 0.703 | 0.913 | 1.14 | 1.1 | 1.03 | 0.942 | 1.04 | 0.549 | 0.563 | 0.544 | 0.416 | 0.587 |
| NCI-H1944 | 0.248 | 0.249 | 0.24 | 0.236 | 0.236 | 0.343 | 0.372 | 0.346 | 0.344 | 0.334 | 1.15 | 1.12 | 1.23 | 0.922 | 1.07 | 0.396 | 0.389 | 0.497 | 0.385 | 0.425 |
| NCI-H1975 | 0.649 | 0.733 | 0.731 | 0.638 | 0.741 | 0.264 | 0.303 | 0.267 | 0.277 | 0.283 | 0.907 | 0.923 | 0.783 | 0.919 | 0.955 | 0.636 | 0.724 | 0.804 | 0.82 | 0.812 |
| NCI-H1993 | 0.611 | 0.529 | 0.58 | 0.539 | 0.529 | 0.679 | 0.798 | 0.807 | 0.768 | 0.776 | 0.677 | 0.654 | 0.728 | 0.91 | 0.7 | 0.568 | 0.572 | 0.51 | 0.529 | 0.556 |
| NCI-H2009 | 0.714 | 0.738 | 0.805 | 0.706 | 0.64 | 0.633 | 0.703 | 0.688 | 0.486 | 0.696 | 1.1 | 1.22 | 1.12 | 1.11 | 1.15 | 0.615 | 0.591 | 0.582 | 0.539 | 0.59 |
| NCI-H2023 | 0.293 | 0.371 | 0.395 | 0.298 | 0.322 | 0.249 | 0.17 | 0.197 | 0.264 | 0.223 | 0.685 | 0.626 | 0.669 | 0.814 | 0.552 | 0.437 | 0.322 | 0.421 | 0.393 | 0.398 |
| NCI-H2085 | 0.663 | 0.786 | 0.823 | 0.825 | 0.891 | 0.444 | 0.39 | 0.502 | 0.435 | 0.531 | 0.817 | 0.923 | 0.93 | 0.918 | 0.968 | 0.664 | 0.536 | 0.733 | 0.772 | 0.858 |
| NCI-H2087 | 0.223 | 0.181 | 0.244 | 0.241 | 0.245 | 0.679 | 0.703 | 0.797 | 0.738 | 0.828 | 0.986 | 0.846 | 0.986 | 0.932 | 0.973 | 0.403 | 0.368 | 0.595 | 0.518 | 0.728 |
| NCI-H2126 | 0.816 | 0.809 | 0.821 | 0.806 | 0.892 | 0.448 | 0.462 | 0.535 | 0.452 | 0.544 | 0.681 | 0.724 | 0.721 | 0.711 | 0.68 | 0.601 | 0.6 | 0.689 | 0.751 | 0.779 |
